Reference: patent publication US11976061B2, “Preparation of benzimidazolone derivatives as novel diacylglyceride O-acyltransferase 2 inhibitors” (Merck Sharp & Dohme LLC, priority 2020, dated 2024)

target: T1, human DGAT2 (hDGAT2) (Homo sapiens, UniProt Q96PD7); assay: DGAT2 Enzymatic Activity Assay; format: biochemical; settings: membrane prep of Sf-9 cells expressing hDGAT2; 25 μM diolein, 5 μM 13C oleoyl-CoA; 13C18-triolein by LC/MS/MS; read-out: DGAT2 IC50
T1 construct: made in house; host or cells: Sf-9 insect cells (baculovirus), membrane fraction
T1 sequence (Q96PD7 1-388): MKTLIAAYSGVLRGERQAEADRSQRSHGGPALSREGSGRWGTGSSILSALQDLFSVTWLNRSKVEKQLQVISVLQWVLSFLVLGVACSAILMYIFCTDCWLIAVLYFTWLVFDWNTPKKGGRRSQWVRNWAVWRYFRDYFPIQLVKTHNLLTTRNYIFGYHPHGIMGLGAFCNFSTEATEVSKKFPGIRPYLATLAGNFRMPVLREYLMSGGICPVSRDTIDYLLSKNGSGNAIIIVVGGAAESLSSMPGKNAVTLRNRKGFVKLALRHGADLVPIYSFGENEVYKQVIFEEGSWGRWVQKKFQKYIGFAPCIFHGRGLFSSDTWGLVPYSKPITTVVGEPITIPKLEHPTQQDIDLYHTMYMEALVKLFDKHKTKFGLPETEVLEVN
Description: Insect Cell Expression and Membrane Preparation
Sf-9 insect cells were maintained in Grace's insect cell culture medium with 10% heated-inactivated fetal bovine serum, 1% Pluronic F-68 and 0.14 μg/ml Kanamycine sulfate at 27° C. in a shaker incubator. After infection with untagged baculovirus expressing human DGAT2 (hDGAT2) at multiplicity of infection (MOI) 3 for 48 hours, cells were harvested. Cell pellets were suspended in buffer containing 10 mM Tris-HCl pH 7.5, 1 mM EDTA, 250 mM sucrose and Complete Protease Inhibitor Cocktail (Sigma Aldrich), and sonicated on ice. Cell debris were removed by centrifugation at 2000×g for 15 minutes. Membrane fractions were isolated by ultracentrifugation (100,000×g), resuspended in the same buffer, and frozen (−80° C.) for later use. The protein concentration was determined with the Pierce™ BCA Protein Assay Kit (Thermo Fisher Scientific). Expression of protein levels was analyzed by immunoblotting with rabbit anti-DGAT2 antibody (Abcam, ab102831) and donkey anti-rabbit IgG H&L Alexa Fluor® 647 (Abcam, ab150075) followed by detection using Typhoon FLA9000 (GE Healthcare).
LC/MS/MS analyses were performed using Thermal Fisher's LX4-TSQ Vantage system. This system consists of an Agilent binary high-performance liquid chromatography (HPLC) pump and a TSQ Vantage triple quadrupole MS/MS instrument. For each sample, 2 μL samples from the top organic layer of in-plate liquid-liquid extraction were injected onto a Thermo Betabasic C4 column (2.1 mm×20 mm, 5 μm particle size). The samples were then eluted using the following conditions; mobile phase: Isopropanol:acetonitrile/10 mM ammonium formate=50/35/15 (v/v/v), flow rate: 0.8 mL/min, temperature: 25° C. Data was acquired in positive mode using a heated electrospray ionization (HESI) interface. The operational parameters for the TSQ Vantage MS/MS instrument were a spray voltage of 3000 V, capillary temperature of 280° C., vaporizer temperature 400° C., sheath gas 45 arbitrary unit, Aux gas 10 arbitrary units, S-lens 165 and collision gas 1.0 mTorr. […] (SRM) chromatograms of ^13C18-triolein (Q1: 920.8>Q3: 621.3) and internal standard ^13C21-triolein (Q1: 923.8>Q3: 617.3) were collected for 33 sec. The peak area was integrated by Xcalibur Quan software. The ratio between the ^13C18triolein generated in the reaction and spiked in internal standard ^13C21-triolein was used to generate percentage inhibition and IC50 values. Compound percentage inhibition was calculated by the following formula: Inhibition %=1−[(compound response−low control)/(high control−low control)]×100%. Potent compounds were titrated and IC50 were calculated by 4 parameter sigmoidal curve fitting formula.
DGAT2 Enzymatic Activity Assay
DGAT2 activity was determined by measuring the amount of enzymatic product ^13C18-triolein (^13C-1,2,3-Tri(cis-9-octadecenoyl)glycerol) using the membrane prep mentioned above. The assay was carried out in ABgene 384-well assay plates in a final volume of 25 μL at rt. The assay mixture contained the following: assay buffer (100 mM Tris·Cl, pH 7.0, 20 mM MgCl2, 5% ethanol), 25 μM of diolein, 5 μM of ^13C oleoyl-CoA and 8 ng/μL of DGAT2 membrane.

IC50 [nM]	Compound
123	CCOc1cc(-n2c(=O)n(C(C)C(C)(C)O)c3cc(C(=O)NC4(C)CS(=O)(=O)C4)ccc32)c(F)cn1 (single isomer, unassigned) [Example 78a, 1-(2-ethoxy-5-fluoropyridin-4-yl)-3-(3-hydroxy-3-methylbutan-2-yl)-N-(3-methyl-1,1-dioxidothietan-3-yl)-2-oxo-2,3-dihydro-1H-benzo[d]imidazole-5-carboxamide]
13	CCOc1cc(-n2c(=O)n(C(C)C(C)(C)O)c3cc(C(=O)NC4(C)CS(=O)(=O)C4)ccc32)c(F)cn1 (single isomer, unassigned) [Example 78b, 1-(2-ethoxy-5-fluoropyridin-4-yl)-3-(3-hydroxy-3-methylbutan-2-yl)-N-(3-methyl-1,1-dioxidothietan-3-yl)-2-oxo-2,3-dihydro-1H-benzo[d]imidazole-5-carboxamide]

same assay, conditions: membrane prep of Sf-9 cells expressing hDGAT2; 25 μM diolein, 5 μM 13C oleoyl-CoA; 13C18-triolein by LC/MS/MS; read-out: Human DGAT2 IC50

Compound	IC50 [nM]
C[C@@]1(NC(=O)c2ccc3c(c2)n(-c2ccc(F)cc2)c(=O)n3-c2ccc(F)cc2)CCS(=O)(=O)C1 [Example 1, (R)-1,3-bis(4-fluorophenyl)-N-(3-methyl-1,1-dioxidotetrahydrothiophen-3-yl)-2-oxo-2,3-dihydro-1H-benzo[d]imidazole-5-carboxamide]	573
C[C@@]1(NC(=O)c2ccc3c(c2)n(-c2ccc(F)cc2)c(=O)n3-c2cccc(OC(F)F)c2)CCS(=O)(=O)C1 [Example 3, (R)-1-(3-(difluoromethoxy)phenyl)-3-(4-fluorophenyl)-N-(3-methyl-1,1-dioxidotetrahydrothiophen-3-yl)-2-oxo-2,3-dihydro-1H-benzo[d]imidazole-5-carboxamide]	2.4
CC1(NC(=O)c2cnc3c(c2)n(-c2ccc(F)cc2)c(=O)n3-c2cccc(OC(F)F)c2)CS(=O)(=O)C1 [Example 4, 3-(3-(difluoromethoxy)phenyl)-1-(4-fluorophenyl)-N-(3-methyl-1,1-dioxidothietan-3-yl)-2-oxo-2,3-dihydro-1H-imidazo[4,5-b]pyridine-6-carboxamide]	8.5
CC(C)n1c(=O)n(-c2cc(OC(F)F)ncc2F)c2ccc(C(=O)NC3(C)CCS(=O)(=O)CC3)cc21 [Example 5, 1-(2-(Difluoromethoxy)-5-fluoropyridin-4-yl)-3-isopropyl-N-(4-methyl-1,1-dioxidotetrahydro-2H-thiopyran-4-yl)-2-oxo-2,3-dihydro-1H-benzo[d]imidazole-5-carboxamide]	34
CCOc1cc(-n2c(=O)n(C(C)C)c3cc(C(=O)NC4(C)CCS(=O)(=O)CC4)ccc32)c(F)cn1 [Example 15, 1-(2-Ethoxy-5-fluoropyridin-4-yl)-3-isopropyl-N-(4-methyl-1,1-dioxidotetrahydro-2H-thiopyran-4-yl)-2-oxo-2,3-dihydro-1H-benzo[d]imidazole-5-carboxamide]	6.7
CCOc1cc(-n2c(=O)n(C(C)C)c3cc(C(=O)N[C@@]4(C)CCS(=O)(=O)C4)ccc32)c(F)cn1 [Example 17, (S)-1-(2-Ethoxy-5-fluoropyridin-4-yl)-3-isopropyl-N-(3-methyl-1,1-dioxidotetrahydrothiophen-3-yl)-2-oxo-2,3-dihydro-1H-benzo[d]imidazole-5-carboxamide]	122
CCOc1cc(-n2c(=O)n(C(C)C)c3cc(C(=O)N[C@]4(C)CCS(=O)(=O)C4)ccc32)c(F)cn1 [Example 18, (R)-1-(2-Ethoxy-5-fluoropyridin-4-yl)-3-isopropyl-N-(3-methyl-1,1-dioxidotetrahydrothiophen-3-yl)-2-oxo-2,3-dihydro-1H-benzo[d]imidazole-5-carboxamide]	28

Further lines, results first:

IC50 [nM]	Compound
1.8	CC1(NC(=O)c2ccc3c(c2)n(-c2ccc(F)cc2)c(=O)n3-c2cccc(OC(F)F)c2)CS(=O)(=O)C1 [Example 2, 1-(3-(difluoromethoxy)phenyl)-3-(4-fluorophenyl)-N-(3-methyl-1,1-dioxidothietan-3-yl)-2-oxo-2,3-dihydro-1H-benzo[d]imidazole-5-carboxamide]
88	CC(C)Oc1cccc(-n2c(=O)n(C(C)C)c3cc(C(=O)NC4(C)CS(=O)(=O)C4)ccc32)c1 [Example 6, 1-(3-isopropoxyphenyl)-3-isopropyl-N-(3-methyl-1,1-dioxo-thietan-3-yl)-2-oxo-benzimidazole-5-carboxamide]
16	CC(C)n1c(=O)n(-c2cccc(OC(F)(F)C(F)F)c2)c2ccc(C(=O)NC3(C)CS(=O)(=O)C3)cc21 [Example 7, 3-isopropyl-N-(3-methyl-1,1-dioxo-thietan-3-yl)-2-oxo-1-[3-(1,1,2,2-tetrafluoroethoxy)phenyl]benz-imidazole-5-carboxamide]
43	CC(C)n1c(=O)n(-c2cccc(OCC(F)F)c2)c2ccc(C(=O)NC3(C)CS(=O)(=O)C3)cc21 [Example 8, 1-[3-(2,2-difluoroethoxy)phenyl]-3-isopropyl-N-(3-methyl-1,1-dioxo-thietan-3-yl)-2-oxo-benzimidazole-5-carboxamide]
4.3	CCOc1cccc(-n2c(=O)n(C(C)C)c3cc(C(=O)NC4(C)CS(=O)(=O)C4)ccc32)c1 [Example 9, 1-(3-ethoxyphenyl)-3-isopropyl-N-(3-methyl-1,1-dioxo-thietan-3-yl)-2-oxo-benzimidazole-5-carboxamide]
153	CC(C)n1c(=O)n(-c2cccc(OC(F)(F)F)c2)c2ccc(C(=O)NC3(C)CCS(=O)(=O)CC3)cc21 [Example 10, 3-isopropyl-N-(4-methyl-1,1-dioxo-thian-4-yl)-2-oxo-1-[3-(trifluoromethoxy)phenyl]benz-imidazole-5-carboxamide]
15	CC(C)n1c(=O)n(-c2cccc(OCC(F)F)c2)c2ccc(C(=O)NC3(C)CCS(=O)(=O)CC3)cc21 [Example 11, 1-[3-(2,2-difluoroethoxy)phenyl]-3-isopropyl-N-(4-methyl-1,1-dioxo-thian-4-yl)-2-oxo-benzimidazole-5-carboxamide]
122	CC(C)n1c(=O)n(-c2cc(OC(F)F)ccn2)c2ccc(C(=O)NC3(C)CS(=O)(=O)C3)cc21 [Example 12, 1-[4-(difluoromethoxy)-2-pyridyl]-3-isopropyl-N-(3-methyl-1,1-dioxo-thietan-3-yl)-2-oxo-benzimidazole-5-carboxamide]
17	CC(C)n1c(=O)n(-c2cccc(C3CC3)c2)c2ccc(C(=O)NC3(C)CS(=O)(=O)C3)cc21 [Example 13, 1-(3-cyclopropylphenyl)-3-isopropyl-N-(3-methyl-1,1-dioxo-thietan-3-yl)-2-oxo-benzimidazole-5-carboxamide]
15	CC(C)n1c(=O)n(-c2cccc(OC3CC3)c2)c2ccc(C(=O)NC3(C)CS(=O)(=O)C3)cc21 [Example 14, 1-[3-(cyclopropoxy)phenyl]-3-isopropyl-N-(3-methyl-1,1-dioxo-thietan-3-yl)-2-oxo-benzimidazole-5-carboxamide]
32	CCOc1cc(-n2c(=O)n(C(C)C)c3cc(C(=O)NC4(C)CS(=O)(=O)C4)ccc32)c(F)cn1 [Example 16, 1-(2-ethoxy-5-fluoropyridin-4-yl)-3-isopropyl-N-(3-methyl-1,1-dioxidothietan-3-yl)-2-oxo-2,3-dihydro-1H-benzo[d]imidazole-5-carboxamide]
